From patent US8637484B2, “Modulation of growth hormone receptor expression and insulin-like growth factor expression” (Antisense Therapeutic Limited, priority 2003, dated 2014)
In the oligonucleotide strings, read from the 5' end, every base follows the letter of its sugar. An asterisk marks phosphorothioate; unmarked linkages are phosphodiester. Other units and linkages are bracketed, terminal groups are in braces. A string of capitals states the bases alone. e = 2'-O-(2-methoxyethyl) (MOE); [5mC] = 5-methylcytosine; d = 2'-deoxy (DNA)

System: human growth hormone receptor mRNA
Assay: Inhibition of human growth hormone receptor mRNA levels in MCF7 cells, quantitative real-time PCR
Format: cell-based
Set-up: concentration or dose not given beside the values
Settings: averages from three experiments
Procedure: The human breast carcinoma cell line MCF-7 was obtained from the American Type Culture Collection (Manassas, Va.). MCF-7 cells were routinely cultured in DMEM low glucose (Gibco/Life Technologies, Gaithersburg, Md.) supplemented with 10% fetal calf serum (Gibco/Life Technologies, Gaithersburg, Md.). Cells were routinely passaged by trypsinization and dilution when they reached 90% confluence. Cells were seeded into 96-well plates (Falcon-Primaria #3872) at a density of 7000 cells/well for use in RT-PCR analysis.
When cells reached 65-75% confluency, they were treated with oligonucleotide. For cells grown in 96-well plates, wells were washed once with 100 μL OPTI-MEM™-1 reduced-serum medium (Invitrogen Corporation, Carlsbad, Calif.) and then treated with 130 μL of OPTI-MEM™-1 containing 3.75 μg/mL LIPOFECTIN™ (Invitrogen Corporation, Carlsbad, Calif.) and the desired concentration of oligonucleotide. Cells are treated and data are obtained in triplicate. After 4-7 hours of treatment at 37° C., the medium was replaced with fresh medium. Cells were harvested 16-24 hours after oligonucleotide treatment.
Total RNA was isolated using an RNEASY 96™ kit and buffers purchased from Qiagen Inc. (Valencia, Calif.) following the manufacturer's recommended procedures. Briefly, for cells grown on 96-well plates, growth medium was removed from the cells and each well was washed with 200 μL cold PBS. 150 μL Buffer RLT was added to each well and the plate vigorously agitated for 20 seconds. 150 μL of 70% ethanol was then added to each well and the contents mixed by pipetting three times up and down. The samples were then transferred to the RNEASY 96™ well plate attached to a QIAVAC™ manifold fitted with a waste collection tray and attached to a vacuum source. Vacuum was applied for 1 minute. 500 μL of Buffer RW1 was added to each well of the RNEASY 96™ plate and incubated for 15 minutes and the vacuum was again applied for 1 minute. An additional 500 μL of Buffer RW1 was added to each well of the RNEASY 96™ plate and the vacuum was applied for 2 minutes. 1 mL of Buffer RPE was then added to each well of the RNEASY 96™ plate and the vacuum applied for a period of 90 seconds. The Buffer RPE wash was then repeated and the vacuum was applied for an additional 3 minutes. The plate was then removed from the QIAVAC™ manifold and blotted dry on paper towels. The plate was then re-attached to the QIAVAC™ manifold fitted with a collection tube rack containing 1.2 mL collection tubes. RNA was then eluted by pipetting 140 μL of RNAse free water into each well, incubating 1 minute, and then applying the vacuum for 3 minutes.
Quantitation of growth hormone receptor mRNA levels was accomplished by real-time quantitative PCR using the ABI PRISM™ 7600, 7700, or 7900 Sequence Detection System (PE-Applied Biosystems, Foster City, Calif.) according to manufacturer's instructions. This is a closed-tube, non-gel-based, fluorescence detection system which allows high-throughput quantitation of polymerase chain reaction (PCR) products in real-time. As opposed to standard PCR in which amplification products are quantitated after the PCR is completed, products in real-time quantitative PCR are quantitated as they accumulate. This is accomplished by including in the PCR reaction an oligonucleotide probe that anneals specifically between the forward and reverse PCR primers, and contains two fluorescent dyes. A reporter dye (e.g., FAM or JOE, obtained from either PE-Applied Biosystems, Foster City, Calif., Operon Technologies Inc., Alameda, Calif. or Integrated DNA Technologies Inc., Coralville, Iowa) is attached to the 5′ end of the probe and a quencher dye (e.g., TAMRA, obtained from either PE-Applied Biosystems, Foster City, Calif., Operon Technologies Inc., Alameda, Calif. or Integrated DNA Technologies Inc., Coralville, Iowa) is attached to the 3′ end of the probe. When the probe and dyes are intact, reporter dye emission is quenched by the proximity of the 3′ quencher dye. […]

Row | Substance | % INHIB
1 | 272323 (antisense eT*eG*eT*eG*eT*d[5mC]*dT*dG*dA*dT*dT*d[5mC]*d[5mC]*dT*d[5mC]*eA*eG*eT*e[5mC]*eT) [compound 272323] | 67%
2 | 272324 (antisense eT*eA*eT*eG*eT*d[5mC]*dA*dT*dT*dG*dG*d[5mC]*dA*dT*dT*eG*eA*eA*eA*eT) [compound 272324] | 53%
3 | 272325 (antisense eA*eA*eG*eG*e[5mC]*dA*dT*dA*dA*dG*dA*dG*dA*dT*d[5mC]*eT*eG*e[5mC]*eT*eT) [compound 272325] | 66%
4 | 272326 (antisense eA*e[5mC]*eT*e[5mC]*eA*dG*d[5mC]*dT*d[5mC]*d[5mC]*dT*dT*d[5mC]*dA*dG*eT*eA*eG*eG*eA) [compound 272326] | 77%
5 | 272327 (antisense eG*eG*eA*e[5mC]*eA*dT*d[5mC]*d[5mC]*d[5mC]*dT*dG*d[5mC]*d[5mC]*dT*dT*eA*eT*eT*e[5mC]*eT) [compound 272327] | 60%
6 | 272328 (antisense eG*eG*e[5mC]*eA*eT*dT*dG*dT*d[5mC]*d[5mC]*dA*dT*dA*dA*dG*eG*eA*eA*eG*eT) [compound 272328] | 85%
7 | 272329 (antisense eA*e[5mC]*eT*eT*eT*dT*dT*dG*dG*d[5mC]*dA*dT*d[5mC]*dT*dG*e[5mC]*e[5mC]*eT*e[5mC]*eA) [compound 272329] | 63%
8 | 272330 (antisense eG*eA*eT*eG*e[5mC]*dA*d[5mC]*dT*dT*dT*dT*dT*dG*dG*d[5mC]*eA*eT*e[5mC]*eT*eG) [compound 272330] | 47%
9 | 272331 (antisense e[5mC]*eA*eG*eT*e[5mC]*dG*d[5mC]*dA*dT*dT*dG*dA*dG*dT*dA*eT*eG*eA*eG*eG) [compound 272331] | 67%
10 | 272332 (antisense e[5mC]*eT*e[5mC]*eT*eT*dT*dG*dT*d[5mC]*dA*dG*dG*d[5mC]*dA*dA*eG*eG*eG*e[5mC]*eA) [compound 272332] | 75%
11 | 272333 (antisense eG*eT*eG*e[5mC]*eT*d[5mC]*dA*d[5mC]*dA*dT*dA*dG*d[5mC]*d[5mC]*dA*e[5mC]*eA*eT*eG*eA) [compound 272333] | 72%
12 | 272334 (antisense eA*eA*eG*eA*eA*dA*dG*dG*d[5mC]*dT*dA*dA*dG*dG*d[5mC]*eA*eT*eG*eA*eT) [compound 272334] | 61%
13 | 272335 (antisense eA*eA*eA*eT*eA*d[5mC]*dG*dT*dA*dG*d[5mC]*dT*d[5mC]*dT*dT*eG*eG*eG*eA*eA) [compound 272335] | 47%
14 | 272336 (antisense e[5mC]*eA*eA*eT*e[5mC]*dA*d[5mC]*dT*dG*d[5mC]*dT*dA*d[5mC]*dT*dA*eA*eA*e[5mC]*eA*eG) [compound 272336] | 69%
15 | 272337 (antisense eA*eA*eA*e[5mC]*eA*dT*dA*dG*d[5mC]*d[5mC]*dA*dT*dT*d[5mC]*dA*eA*eT*eG*e[5mC]*eT) [compound 272337] | 39%
16 | 272338 (antisense eG*eT*eG*e[5mC]*eT*dA*dT*dG*dG*dT*dT*dT*dG*d[5mC]*dA*eT*eT*e[5mC]*eA*eA) [compound 272338] | 78%
17 | 272339 (antisense eG*eT*eT*eT*eT*dA*d[5mC]*dA*dT*dA*dT*d[5mC]*d[5mC]*dA*dA*eA*e[5mC]*eT*eA*eT) [compound 272339] | 72%
18 | 272340 (antisense e[5mC]*eA*eT*e[5mC]*eA*dA*d[5mC]*d[5mC]*dA*dA*dG*dA*dT*dT*dT*eG*eG*eT*eG*eA) [compound 272340] | 69%
19 | 272341 (antisense eG*eA*eG*eG*e[5mC]*dT*dA*dT*dA*dG*dA*dT*d[5mC]*dT*dT*eA*eT*e[5mC]*eT*e[5mC]) [compound 272341] | 65%
20 | 272342 (antisense eT*eA*eG*eT*eG*dA*dG*dA*dA*dA*dG*dA*dA*dA*dG*eT*eT*eT*e[5mC]*eT) [compound 272342] | 45%
